Laboratory results: US12421216B2, “Voruciclib polymorphs and methods of making and using thereof” (MEI PHARMA, INC., priority 2019, dated 2025)
“Also recorded” adds a separate entry of the source. Each block holds one compound with its values, some of them ahead of it.

Experiments:
[1] = Physical stability upon exposure to accelerated aging conditions (AAC, 40° C./75% RH), re-analysis by HT-XRPD; format: physicochemical; conditions: for Stable during AAC: salt screen solids; for Stable during AAC / Physical stability upon exposure to AAC: 40° C./75% RH, 2 days; for Physical stability upon exposure to AAC: HT-XRPD before and after; for Liquid phase AAC (XRPD form after accelerated aging): solids from evaporated mother liquors of the salt screen; for Liquid phase AAC (XRPD form after accelerated aging) / Solid phase AAC (XRPD form after accelerated aging): 40° C./75% RH for 2 days, HT-XRPD; for Solid phase AAC (XRPD form after accelerated aging): precipitated solids of the salt screen, dried under vacuum at 50° C.
[2] = Solubility of salts in water and in 0.2 M phosphate buffer pH 6 at 37° C. after 4 hours (HPLC-DAD); format: physicochemical; conditions: for pH (4 h): pH at end of equilibration
Method: Two sets of solubility experiments were performed. […] In the second set of solubility experiments about 5 mg of the salt was weighed in a standard 1.8 mL HPLC vial. Subsequently, aliquots of 200 μL of aqueous medium were added up to a maximum of 1 mL, while making observations regarding the dissolution behavior of the salts. The vials were left to equilibrate at 37° C. with continuous stirring (see Table 25 for details). After 4 hours the solids were separated from the liquid by centrifugation and the liquid phase was further filtrated through a […] PTFE filter to remove any particulate matter. The concentration of solute was determined by HPLC-DAD analysis. A calibration curve was made from two independent stock solutions of voruciclib prepared in acetonitrile/water. The pH was recorded at the end of the equilibration time.

[3] = 0.2 M phosphate buffer pH 6, 37° C., 4 hours
[4] = 0.2M phosphate buffer pH 6, 37° C., 4 hours, about 1 mg salt in 1 mL
[5] = 0.2M phosphate buffer pH 6, 37° C., 4 hours, about 5 mg salt in 1 mL
[6] = 0.2M phosphate buffer pH 6, 37° C., about 1 mg salt in 1 mL
[7] = 0.2M phosphate buffer pH 6, 37° C., about 5 mg salt in 1 mL
[8] = water, 37° C., 4 hours, about 1 mg salt in 1 mL
[9] = water, 37° C., 4 hours, about 5 mg salt, up to 1 mL
[10] = water, 37° C., about 1 mg salt in 1 mL
[11] = water, 37° C., about 5 mg salt, up to 1 mL

SMILES: CN1CCC(c2c(O)cc(O)c3c(=O)cc(-c4ccc(C(F)(F)F)cc4Cl)oc23)C1CO.O=C(O)C=CC(=O)O (centres unmarked) [Fum1]
Solid phase AAC (XRPD form after accelerated aging) [1]: Fum1 | Stable during AAC [1]: Yes

SMILES: CN1CCC(c2c(O)cc(O)c3c(=O)cc(-c4ccc(C(F)(F)F)cc4Cl)oc23)C1CO.CN1CCC(c2c(O)cc(O)c3c(=O)cc(-c4ccc(C(F)(F)F)cc4Cl)oc23)C1CO.O=C(OC(C(=O)O)C(OC(=O)c1ccccc1)C(=O)O)c1ccccc1 (centres unmarked) [DiTr1]
Physical stability upon exposure to AAC [1]: physically stable under AAC; also recorded: physically stable upon exposure to AAC for two days | Solid phase AAC (XRPD form after accelerated aging) [1]: DiTr1 | Stable during AAC [1]: Yes | Solubility in phosphate buffer [2, 3]: 30 to 40 µg/mL | solubility [2, 4]: 30 µg/mL | solubility [2, 5]: 40 µg/mL | Form (4 h) of residual solid [2, 6]: DiTr1 | pH (4 h) [2, 6]: 6.0 | Form (4 h) of residual solid [2, 7]: DiTr1 | pH (4 h) [2, 7]: 6.3 | Dissolution behaviour in aqueous media (gelling, wettability) ([2]; salt screen, water and/or 0.2 M phosphate buffer pH 6): poor wettability | Solubility in water ([2]; water, 37° C., 4 hours): 30 to 40 µg/mL | solubility [2, 8]: 40 µg/mL | solubility [2, 9]: 30 µg/mL | Solids recovered after solubility determination in water ([2]; water, 37° C., 4 hours, XRPD): DiTr1 was recovered | pH (4 h) [2, 10]: 4.0 | Form (4 h) of residual solid [2, 11]: DiTr1 | pH (4 h) [2, 11]: 3.5

SMILES: N[C@@H](CCC(=O)O)C(=O)O [Glm0]
Solid phase AAC (XRPD form after accelerated aging) [1]: Glm0

SMILES: CN1CCC(c2c(O)cc(O)c3c(=O)cc(-c4ccc(C(F)(F)F)cc4Cl)oc23)C1CO.CN1CCC(c2c(O)cc(O)c3c(=O)cc(-c4ccc(C(F)(F)F)cc4Cl)oc23)C1CO.O=S(=O)(O)c1cccc2c(S(=O)(=O)O)cccc12 (centres unmarked) [Hemi-napadisylate]
Solubility pH 6 [2, 3]: 0.02 mg/mL | Solubility water ([2]; water, 37° C., 4 hours): 20 µg/mL

SMILES: CN1CCC(c2c(O)cc(O)c3c(=O)cc(-c4ccc(C(F)(F)F)cc4Cl)oc23)C1CO.O=C(O)c1ccccc1 (centres unmarked) [Ben1]
Physical stability upon exposure to AAC [1]: physically unstable during exposure to AAC for two days and converted to Ben3 | Stable during AAC [1]: No => Ben3 | Liquid phase AAC (XRPD form after accelerated aging) [1]: Ben3

SMILES: Br.CN1CCC(c2c(O)cc(O)c3c(=O)cc(-c4ccc(C(F)(F)F)cc4Cl)oc23)C1CO (centres unmarked) [HBr1]
Physical stability upon exposure to AAC [1]: physically unstable during exposure to accelerated aging conditions and converted to HBr2 | Stable during AAC [1]: No => HBr2 | Liquid phase AAC (XRPD form after accelerated aging) [1]: HBr2

SMILES: CN1CC[C@@H](c2c(O)cc(O)c3c(=O)cc(-c4ccc(C(F)(F)F)cc4Cl)oc23)[C@@H]1CO.O=S(=O)(O)c1ccccc1 [Bes1]
Physical stability upon exposure to AAC [1]: physically unstable during exposure to AAC and became less crystalline | Stable during AAC [1]: No => Am or

Now from value to compound, other results behind:

Stable during AAC [1]: Yes
SMILES: CN1CCC(c2c(O)cc(O)c3c(=O)cc(-c4ccc(C(F)(F)F)cc4Cl)oc23)C1CO.O=C(O)CC(O)C(=O)O (centres unmarked) [Mal1]

Physical stability upon exposure to AAC [1]: physically stable during exposure to AAC | Stable during AAC [1]: Yes | Liquid phase AAC (XRPD form after accelerated aging) [1]: Xin1
SMILES: CN1CC[C@@H](c2c(O)cc(O)c3c(=O)cc(-c4ccc(C(F)(F)F)cc4Cl)oc23)[C@@H]1CO.O=C(O)c1ccc2ccccc2c1O [Xin1]

Solid phase AAC (XRPD form after accelerated aging) [1]: Sul2 | Stable during AAC [1]: Yes
SMILES: CN1CCC(c2c(O)cc(O)c3c(=O)cc(-c4ccc(C(F)(F)F)cc4Cl)oc23)C1CO.CN1CCC(c2c(O)cc(O)c3c(=O)cc(-c4ccc(C(F)(F)F)cc4Cl)oc23)C1CO.O=S(=O)(O)O (centres unmarked) [Sul2]

Stable during AAC [1]: Yes
SMILES: CN1CCC(c2c(O)cc(O)c3c(=O)cc(-c4ccc(C(F)(F)F)cc4Cl)oc23)C1CO.O=S(=O)(O)O (centres unmarked) [Sul4]

Solid phase AAC (XRPD form after accelerated aging) [1]: Nds1a | Stable during AAC [1]: Yes | Solubility in phosphate buffer [2, 3]: 20 µg/mL | solubility [2, 4]: 20 µg/mL | solubility [2, 5]: 20 µg/mL | Form (4 h) of residual solid [2, 6]: Free | pH (4 h) [2, 6]: 6.0 | Form (4 h) of residual solid [2, 7]: Nds1a | pH (4 h) [2, 7]: 5.9 | Solubility in water ([2]; water, 37° C., 4 hours): 20 µg/mL | solubility [2, 8]: 30 µg/mL | solubility [2, 9]: 20 µg/mL | pH (4 h) [2, 10]: 4.3 | Form (4 h) of residual solid [2, 11]: Nds1a | pH (4 h) [2, 11]: 3.4
SMILES: CN1CC[C@@H](c2c(O)cc(O)c3c(=O)cc(-c4ccc(C(F)(F)F)cc4Cl)oc23)[C@@H]1CO.CN1CC[C@@H](c2c(O)cc(O)c3c(=O)cc(-c4ccc(C(F)(F)F)cc4Cl)oc23)[C@@H]1CO.O=S(=O)(O)c1cccc2c(S(=O)(=O)O)cccc12 [Nds1a]
Physical stability upon exposure to AAC [1]: stable during exposure to AAC for 2 days; also recorded: physically stable upon exposure to AAC for two days | Solids recovered / salt dissociation after solubility determination in buffer ([2]; 0.2 M phosphate buffer pH 6, 37° C., 4 hours, XRPD): the residual solids were identical to Nds1a | Solids recovered after solubility determination in water ([2]; water, 37° C., 4 hours, XRPD): the residual solids were identical to Nds1a

Solid phase AAC (XRPD form after accelerated aging) [1]: Sul1 | Stable during AAC [1]: Yes | Liquid phase AAC (XRPD form after accelerated aging) [1]: Sul1
SMILES: CN1CC[C@@H](c2c(O)cc(O)c3c(=O)cc(-c4ccc(C(F)(F)F)cc4Cl)oc23)[C@@H]1CO.O=S(=O)(O)O [Sul1]
